Blank lines part the entries; values can stand above or below the compound they belong to.
Tests used:
[1] = Hydrolytic stability of L-Dopa phosphoramidate prodrugs; format: physicochemical; settings: for hydrolytic stability relative to 1b (in words): 37 °C, 31P NMR, pH not stated at the place
[2] = L-Dopa alone, systemic circulation; cited from earlier work

hydrolytic stability relative to 1b (in words) [1]: unstable compared to 1b
Compound: O=C([O-])CCOP(=O)([O-])N[C@@H](Cc1ccc(O)c(O)c1)C(=O)[O-].[K+].[K+].[K+] [1c]

Compound: CC(=O)N[C@H](C(=O)[O-])[C@@H](C)OP(=O)([O-])N[C@@H](Cc1ccc(O)c(O)c1)C(=O)[O-].[K+].[K+].[K+] [1a]
hydrolytic stability relative to 1b (in words) [1]: considerably less stable than the serine analog 1b

hydrolytic stability (in words) ([1]; pH 7.4, 37 °C, 31P NMR over 16 h): stable
Compound: CC(=O)NCCOP(=O)([O-])N[C@@H](Cc1ccc(O)c(O)c1)C(=O)[O-].[K+].[K+] [1e]

Compound: N[C@@H](Cc1ccc(O)c(O)c1)C(=O)O [L-Dopa, Levodopa]
circulating half-life [2]: approximately 1 h

half-life ([1]; buffer, pH 7.4, half-life (t1/2) of hydrolysis, pH 7.4, 37 °C, 31P NMR over 16 h, internal standard TPPO, first-order kinetics): ~600 min
Compound: CC(=O)N[C@@H](COP(=O)([O-])N[C@@H](Cc1ccc(O)c(O)c1)C(=O)[O-])C(=O)[O-].[K+].[K+].[K+] [1b]

Source: paper PMC7654512 (Bioorganic & medicinal chemistry letters, 2019)
